The record followed here is patent US7985412B2, “Method of monitoring/controlling thysanoptera” (Keele University, priority 2004, dated 2011).

The test system of one assay is F. occidentalis. Kind of assay: Field trial: catch on blue sticky traps in sweet pepper greenhouses. The format is in vivo, Frankliniella occidentalis. As for the experimental part: The biological activity of neryl (S)-2 methylbutanoate was tested in commercial crops of sweet pepper (var. Habana) grown in greenhouses at Zamora (37°42.945′N, 0°57.720′W) near Torre Pacheco in the Murcia region of Spain. The crops were about 110 cm high, planted in rows 1 m apart, and were naturally infested with a low level of F. occidentalis. Three 2-day long experiments were carried out, alternating between two nearby houses, each with an area of about 6500 m^2.
The compound was released from rubber septa (6.3 mm diameter×10.8 mm long) (100706; Aldrich, UK) that had been preextracted in hexane-dichloromethane and dried in an oven at 50° C. Septa were loaded with solutions of the test compound in hexane or with hexane alone (control). After evaporation of the solvent, the rubber septa were stored in aluminum foil bags. They were placed on traps in the field within 2 hr of preparation.
Blue plastic rectangular takitraps (10×25 cm) (Syngenta Bioline, UK), coated on both surfaces with insect glue, were suspended vertically with the base about 10 cm above crop height, by attaching them to crop support strings with a wooden clothes peg. One rubber septum was stuck to the center of the north-facing side of each trap.
Each experiment was laid out in a randomized complete block design with 20 blocks and one replicate per block. Traps were placed about 3.4 m apart down rows of sweet pepper plants with 16 m between each row of traps. The experiment compared two doses, 30 ng and 30 μg, of neryl (S)-2-methylbutanoate with a control.
Thrips caught on the blue sticky traps were examined under a stereoscopic microscope to identify their sex and to distinguish F. occidentalis from about 2% of the thrips that were other species (Thrips spp., aeolothripids, and phlaeothripids). The data were log10(x+1) transformed and analyzed by two-way ANOVA for females, males, and both sexes combined. Multiple comparisons with the control used Dunnett's multiple comparison test. Statistical analysis was carried out with Minitab 14 (Minitab Inc., Pennsylvania, USA).

The subject of assay [1] is female Western Flower Thrips. Nature of the assay: Y-tube olfactometer bioassay. Type of assay: in vivo, Frankliniella occidentalis. The settings on record: for effect upon female Western Flower Thrips (in words): doses of 1 ng, and 100 ng; for attractant effect (in words): female Western Flower Thrips. How it is done:
Thrips were originally obtained from a commercial glasshouse and then maintained on pot chrysanthemums (Dendranthema x grandiflora (Ramat.) Kitamura) at 25° C. under a repeated cycle consisting of 18 hours of light and 6 hours of dark. The culture on chrysanthemums supplied mixed-age adult females, which were attracted to adult males in olfactometer bioassays, so these were used in the bioassays.
The Y-tube has two branches at an angle of 90° and a stem, which are all 60 mm long with internal diameters of 5 mm. The Y-tube was held horizontal and illuminated from above by four fluorescent tubes (950 lux). It was screened by a 10 cm high matt-black card wall, forming a 280 mm×280 mm square, to minimise any external visual influences. A 50 ml round glass flask with a Drechsel head was inserted in the tube before each branch and a semi-circle of filter paper (Whatman No. 1, diameter 42.5 mm), moistened with water, was placed in each to humidify the air. Connections between tubes are either made with brass swagelock connectors or by inserting narrower tubes into slightly wider tubes. All the glassware and the glass wool were rinsed thoroughly in warm water with Teepol ‘L’ neutral detergent (BDH Laboratory Supplies, Poole), then in distilled water, then in acetone, and left to dry overnight in an oven at 200° C. before each experiment. The connecting Teflon tubing and the swagelock connectors were rinsed thoroughly in warm water with Teepol ‘L’ neutral detergent, then in distilled water, then in hexane, and left to dry overnight in a fume cupboard before each run of an experiment.
Zero-grade clean air from a cylinder (supplied by British Oxygen Corporation, Manchester) was passed through an activated charcoal filter and then along Teflon tubes to two flow meters (Supelco, Sigma-Aldrich, Poole) that regulated the air flow to the two branches of a glass Y-tube. The rate in the two branches was 50 mm s^−1 (59 ml min^−1) and in the stem was 100 mm s^−1 (118 ml min^−1) and were checked with a bubble flow meter.
Adults were placed one at a time in the stem of the Y-tube, by transferring them with a fine paintbrush, and allowed to walk up the Y-tube. A choice was recorded when they first crossed a line 20 mm down either branch from the junction of the “Y”. If a choice was not made within 3 min, it was recorded as “no choice” and excluded from the analysis. Each individual was tested twice to provide two successive choices. The sample flasks, connecting tubing and Y-tube were reversed after every 5 individuals. This reduced possible bias from external influences. Each experiment consisted of 1 to 3 runs on separate days to reduce possible bias from external influences. A total of 25 individuals were tested in each run of an experiment, which lasted about 2 h. Experiments were conducted at 25±1° C.
At the start of each run, 0.2 ml of distilled water was placed on the filter paper in each flask. […] The filter papers were removed and replaced with fresh water and test and control substances every time the equipment was reversed.
It was shown that there was no preference in thrips response by testing mixed-age females (in the absence of a test composition) in the Y-tube olfactometer on 3 separate days. The apparatus was set up as before, but with only water and hexane in each flask. Since the arms of the Y-tube were reversed by rotating the stem by 180° after every five individuals, the difference in the number of choices between left and right and between arm A and arm B could be tested separately. There was no preference to the left or right or for arm A or arm B thus establishing that the apparatus was unbiased.
In each case 25 adult females were tested in 2 or 3 separate runs. The compound was applied in 1 μl hexane.
Example 1 was repeated using each of isobornyl 2-methyl butanoate, isobornyl pivalate and lavandulyl valerate in amounts of 0.1 ng. […]

[2] abbreviates: 0.1 ng, filter paper placed in Teflon tube instead of glass flask.

Counter-ions that a name gives are not always drawn.

As for `CC[C@H](C)C(=O)OC/C=C(/C)CCC=C(C)C` [N(S)2MB, neryl (S)-2-methylbutanoate], the “Mean catch over 2 days ± SE (N = 20)” value with F. occidentalis (Both sexes, high dose 30 μg on rubber septum) amounted to 22.2 ± 2.0; with F. occidentalis (Both sexes, low dose 30 ng on rubber septum), 18.7 ± 1.7 ns; with F. occidentalis (Females, high dose 30 μg on rubber septum), 9.1 ± 1.2; with F. occidentalis (Females, low dose 30 ng on rubber septum), 6.8 ± 0.7 ns; in the assay with F. occidentalis (Males, high dose 30 μg on rubber septum), 13.2 ± 1.1; with F. occidentalis (Males, low dose 30 ng on rubber septum) it was 11.9 ± 1.2 ns. In the assay on F. occidentalis (dose of 30 μg, both sexes attracted), the “effect on trap catches (in words)” value is on record as “increased trap catches significantly”.
`CC(C)=CCC/C(C)=C\COC=O` [Neryl Formate, reference compound]: in assay [1], the “effect upon female Western Flower Thrips (in words)” value is “no effect”.
Regarding `C=C(C)C(CC=C(C)C)COC(C)=O` (stereo not shown) [lavandulyl acetate, reference compound], in assay [1] (doses of 0.1 ng, 1 ng, 10 ng, 100 ng and 1000 ng), the “attractant effect (in words)” value was “no attractant effect”.
As for `CCC(C)C(=O)OC1CC2CCC1(C)C2(C)C` (stereo not shown) [Isobornyl 2-methyl butanoate, isobornyl 2-methyl butanoate], in assay [1] (setting [2]), the “Preference (%)” value was found to be 72.9%.
The same measure, in the same setting: to `C=C(C)C(CC=C(C)C)COC(=O)CCCC` (stereo not shown) [lavandulyl valerate] belongs 79.2%.
Regarding `CC(=O)OC/C=C(/C)CCC=C(C)C` [Neryl Acetate, reference compound], the “effect upon female Western Flower Thrips (in words)” value in assay [1] is “no effect”.
Turning to `CC(C)(C)C(=O)OC1CC2CCC1(C)C2(C)C` (stereo not shown) [isobornyl pivalate], in assay [1] (setting [2]), the “Preference (%)” value was 61.3%.
On to `CCCCC(=O)OC1CC2CCC1(C)C2(C)C` (stereo not shown) [isobornyl valerate], for which the “Preference (%)” value in assay [1] (0.002 ng compound in 1 μl hexane, adult females, combined runs) is given as 64.8%; in assay [1] (0.02 ng compound in 1 μl hexane, adult females, combined runs), 73.3%; in assay [1] (0.1 ng compound in 1 μl hexane, adult females, combined runs) it was 76.9%; in assay [1] (0.2 ng compound in 1 μl hexane, adult females, combined runs) it was 79.8%; in assay [1] (2 ng compound in 1 μl hexane, adult females, combined runs), 60.3%. Moreover, the “attractant effect (in words)” value in assay [1] (0.002-2 ng (Table 1) or 0.1 ng (Example 2)) was “strong attractant”.
